Measurements reported in patent publication US8741892B2, “Compounds” (Boehringer Ingelheim International GmbH, priority 2011, dated 2014).

What follows are compounds tested against T1, human recombinant mGluR5 (Homo sapiens, UniProt P41594) (assay: positive modulation of mGluR5, calcium based FLIPR assay). Settings: HEK 293 cell line expressing human recombinant mGluR5; EC50 of the modulation from peak Ca fluorescence signal after glutamate at approx. 5% basal stimulation.
T1 construct: expressed in transfected cells; host or cells: HEK 293
Description: The positive modulation of mGluR5 is measured in a HEK 293 cell line expressing human recombinant mGluR5 and is detected with calcium based FLIPR assay. The cells are cultured with DMEM supplemented with 10% FCS, 2 μg/mL tetracycline, 100 μg/mL hygromycin and 500 μg/mL geneticin. The cell culture media is exchanged for tetracycline-free cell culture media 3-7 days before the assay. One day before the assay the cell culture medium is exchanged to DMEM without glutamine and phenol red and supplemented with 10% FCS, 100 μg/mL hygromycin and 500 μg/mL geneticin. On the assay day, the medium of the subconfluent cultures is removed and the cells are detached by addition of 2.5 ml EDTA (0.02%) per 175 cm2 culture flask for 1 minute. The cells are resuspend in Ringer solution (140 mM NaCl, 5 mM KCl, 2.5 mM CaCl2, 1.5 mM MgCl2, 5 mM Glucose, 10 mM Hepes; adjusted to pH 7.4 with NaOH), pooled and Ringer solution added to adjust the volume to 50 mL. The cell suspension is centrifuged for […] at 1500 U/min (425 g). The supernatant is removed and the cells washed a second time with 50 ml fresh Ringer solution and centrifuged again as before. The supernatant is again removed and the pellet resuspended in Ringer solution to 1,000,000 cells/ml (1×10^6 cells/mL). The cells are plated onto BD BioCoat Poly-D-Lysine 384 well plates (20.000 cells/well; 20 μl/well). The lid covered plates are then incubated until use at 37° C./10% CO2. For dye loading, 20 μl of Calcium-4 assay kit solution (prepared according to the manufacturer's description in Ringer solution) are added to the cells and the plates are incubated for […] 37° C. and then […] at room temperature.
Controls, Compound Dilution and Assay Execution:
Each assay plate contained wells with “high” and “low” controls:
Low controls 1% DMSO/ringer solution+basal glutamate activation (defined as 100% CTL).
High controls 10 μM CDPPB+basal glutamate activation (defined as 200% CTL).
Test compounds are dissolved and diluted in DMSO to 100-fold the desired concentrations. In a second step, the compounds are diluted in Ringer solution such that the compounds are 4-fold more concentrated than the desired final assay concentration. The final DMSO concentration was 1%.
20 μl of each compound solution are then transferred to the assay plate and the Ca2+ kinetic is measured to determine any intrinsic compound activity. After 5 mM incubation in the FLIPR device, the second stimulation with 20 μl of glutamate in Ringer solution (glutamate concentration adjusted to approximately 5% basal stimulation of the maximal possible glutamate effect) is added and the kinetic Ca2+ response of the wells was measured for the modulation effect.
The peak height of the Ca release related fluorescence signal (9-66) is used for the EC50. The EC50 of the modulation is calculated over a nonlinear regression with GraphPad Prism (Table 1).

T1 sequence (P41594 21-1212): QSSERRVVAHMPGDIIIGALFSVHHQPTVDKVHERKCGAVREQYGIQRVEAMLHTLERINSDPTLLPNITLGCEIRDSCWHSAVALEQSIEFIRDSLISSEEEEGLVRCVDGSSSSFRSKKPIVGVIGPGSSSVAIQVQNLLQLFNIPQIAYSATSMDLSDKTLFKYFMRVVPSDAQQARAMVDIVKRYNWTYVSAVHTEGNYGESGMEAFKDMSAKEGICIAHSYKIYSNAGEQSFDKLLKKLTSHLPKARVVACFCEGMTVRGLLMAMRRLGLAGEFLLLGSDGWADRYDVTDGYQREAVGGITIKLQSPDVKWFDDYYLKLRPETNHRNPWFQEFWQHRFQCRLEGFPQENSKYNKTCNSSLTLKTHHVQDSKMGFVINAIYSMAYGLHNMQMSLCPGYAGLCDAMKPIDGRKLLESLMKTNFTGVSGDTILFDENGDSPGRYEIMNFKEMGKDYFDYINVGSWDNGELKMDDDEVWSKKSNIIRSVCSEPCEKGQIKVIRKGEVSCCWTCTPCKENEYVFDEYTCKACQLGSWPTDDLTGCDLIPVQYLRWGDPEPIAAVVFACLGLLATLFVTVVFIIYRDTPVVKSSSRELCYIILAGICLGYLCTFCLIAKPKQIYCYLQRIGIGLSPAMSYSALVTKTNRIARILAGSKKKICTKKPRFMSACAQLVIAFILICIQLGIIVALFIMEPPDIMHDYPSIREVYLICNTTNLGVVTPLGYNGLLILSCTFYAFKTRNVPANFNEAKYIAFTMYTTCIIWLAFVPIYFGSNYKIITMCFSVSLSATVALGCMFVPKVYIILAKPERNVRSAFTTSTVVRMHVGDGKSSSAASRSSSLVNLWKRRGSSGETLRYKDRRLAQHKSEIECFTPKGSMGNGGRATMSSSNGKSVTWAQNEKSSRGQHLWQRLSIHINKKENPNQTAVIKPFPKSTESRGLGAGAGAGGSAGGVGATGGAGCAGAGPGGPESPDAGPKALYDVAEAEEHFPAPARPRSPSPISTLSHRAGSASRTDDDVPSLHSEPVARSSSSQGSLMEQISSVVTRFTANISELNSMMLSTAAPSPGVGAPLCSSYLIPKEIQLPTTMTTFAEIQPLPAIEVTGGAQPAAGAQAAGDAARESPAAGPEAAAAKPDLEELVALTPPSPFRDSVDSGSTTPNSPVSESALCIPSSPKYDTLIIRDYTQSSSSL

Compared with CCc1cc(-c2ccc(F)c(C)c2)nn1CC(=O)N1Cc2nc(C)sc2C1 [Example 7.02.025], CCCc1cc(-c2ccc(F)c(C)c2)nn1CC(=O)N1Cc2nc(C)sc2C1 [Example 7.02.034] is 3.5-fold lower in EC50: 148 nM for the first, 42 nM for the second. The second is the more potent here.

First: CCc1cc(-c2ccc(F)c(C)c2)nn1CC(=O)N1CCc2nc(N)sc2CC1 [Example 7.02.026]
Second: CCCc1cc(-c2ccc(F)c(C)c2)nn1CC(=O)N1CCc2nc(N)sc2CC1 [Example 7.02.033]
The EC50 of the first is 2.9-fold higher: 83 nM for the first, 29 nM for the second.

Going from CCc1cc(-c2ccc(F)c(C)c2)nn1CC(=O)N1CCN(c2cccc(OC)c2)C(=O)C1 [Example 7.02.027] to CCCc1cc(-c2ccc(F)c(C)c2)nn1CC(=O)N1CCN(c2cccc(OC)c2)C(=O)C1 [Example 7.02.032], the EC50 falls from 58 nM to 37 nM (1.6-fold). The second is the more potent here.

Going from CCc1cc(-c2ccc(F)cc2)nn1CC(=O)N1CCN(c2cccc(OC)c2)C(=O)C1 [Example 7.02.028] to CCc1cccc(-c2cc(CC)n(CC(=O)N3CCN(c4cccc(OC)c4)C(=O)C3)n2)c1 [Example 7.02.065], the EC50 falls from 943 nM to 194 nM (4.9-fold). The second is the more potent here.

Going from CCc1cc(-c2ccc(F)cc2)nn1CC(=O)N1CCc2nc(C)sc2CC1 [Example 7.02.029] to CCc1cc(-c2ccc(F)cc2)nn1CC(=O)N1CCc2nc(N)sc2CC1 [Example 7.02.030], the EC50 rises from 329 nM to 1760 nM (5.3-fold).

Going from CCc1cc(-c2ccc(F)cc2)nn1CC(=O)N1Cc2nc(C)sc2C1 [Example 7.02.031] to CCc1cc(-c2cccc(C)c2)nn1CC(=O)N1Cc2nc(C)sc2C1 [Example 7.02.080], the EC50 falls from 1240 nM to 321 nM (3.9-fold).

Cc1nc2c(s1)CCN(C(=O)Cn1nc(-c3ccc(F)c(C)c3)cc1C1CC1)CC2 [Example 7.02.035] and Cc1nc2c(s1)CCN(C(=O)Cn1nc(-c3ccc(F)c(C)c3)cc1C1CCCCC1)CC2 [Example 7.02.048] are within 1.5-fold of each other in EC50: 35 nM for the first, 31 nM for the second.

Cc1cc(-c2cc(C3CC3)n(CC(=O)N3CCc4nc(N)sc4CC3)n2)ccc1F [Example 7.02.036] and Cc1cc(-c2cc(C3CCCCC3)n(CC(=O)N3CCc4nc(N)sc4CC3)n2)ccc1F [Example 7.02.050] are within 1.5-fold of each other in EC50: 136 nM for the first, 183 nM for the second.

CNc1nc2c(s1)CCN(C(=O)Cn1nc(-c3ccc(F)c(C)c3)cc1C1CC1)CC2 [Example 7.02.037] and CNc1nc2c(s1)CCN(C(=O)Cn1nc(-c3ccc(F)c(C)c3)cc1C1CCCCC1)CC2 [Example 7.02.049] are within 1.5-fold of each other in EC50: 194 nM for the first, 157 nM for the second.

First: COc1ccc(-c2cc(C(C)C)n(CC(=O)N3CCc4nc(N)sc4CC3)n2)cc1 [Example 7.02.038]
Second: CC(C)c1cc(-c2ccc(F)cc2)nn1CC(=O)N1CCc2nc(N)sc2CC1 [Example 7.02.073]
The EC50 of the first is 3-fold lower: 210 nM for the first, 627 nM for the second.

COc1ccc(-c2cc(C(C)C)n(CC(=O)N3CCc4cc(OC)ccc4C3)n2)cc1 [Example 7.02.039] and COc1ccc(-c2cc(C(C)C)n(CC(=O)N3CCc4ccc(OC)cc4CC3)n2)cc1 [Example 7.02.044] are within 1.5-fold of each other in EC50: 915 nM for the first, 735 nM for the second.

COc1ccc(-c2cc(C(C)C)n(CC(=O)N3Cc4ccc(OC)cc4C3)n2)cc1 [Example 7.02.040] and COc1ccc(-c2cc(C(C)C)n(CC(=O)N3CCN(c4cccc(OC)c4)C(=O)C3)n2)cc1 [Example 7.02.041] are within 1.5-fold of each other in EC50: 1700 nM for the first, 1220 nM for the second.

First: COc1ccc(-c2cc(C(C)C)n(CC(=O)N3CCc4nc(N)sc4CC3)n2)cc1 [Example 7.02.042]
Second: COc1ccc(-c2cc(C(C)C)n(CC(=O)N3CCc4nc(N)sc4CC3)n2)cc1C [Example 7.02.046]
The EC50 of the first is 4.6-fold lower: 192 nM for the first, 881 nM for the second.

COc1ccc(-c2cc(C(C)C)n(CC(=O)N3CCc4nc(C)oc4C3)n2)cc1 [Example 7.02.043] and COc1ccc(-c2cc(C(C)C)n(CC(=O)N3Cc4nc(C)sc4C3)n2)cc1 [Example 7.02.045] are within 1.5-fold of each other in EC50: 1740 nM for the first, 1410 nM for the second.

COc1ccc(-c2cc(C(C)C)n(CC(=O)N3CCc4nc(C)sc4CC3)n2)cc1C [Example 7.02.047] and COc1cc(-c2cc(C(C)C)n(CC(=O)N3CCc4nc(C)sc4CC3)n2)ccc1F [Example 7.02.051] are within 1.5-fold of each other in EC50: 221 nM for the first, 190 nM for the second.

First: COc1cccc(-c2cc(C3CCCCC3)n(CC(=O)N3CCc4nc(N)sc4CC3)n2)c1 [Example 7.02.052]
Second: CCc1cc(-c2cccc(C)c2)nn1CC(=O)N1CCc2nc(N)sc2CC1 [Example 7.02.079]
The EC50 of the first is 1.6-fold higher: 297 nM for the first, 182 nM for the second. The second is the more potent here.

Going from COc1cccc(-c2cc(C3CCCCC3)n(CC(=O)N3CCN(c4cccc(OC)c4)C(=O)C3)n2)c1 [Example 7.02.053] to COc1cccc(N2CCN(C(=O)Cn3nc(-c4cc(C)c(C)cn4)cc3-c3ccccc3)CC2=O)c1 [Example 7.02.064], the EC50 falls from 552 nM to 177 nM (3.1-fold). The second is the more potent here.

Going from Cc1cc(-c2cc(C(C)C)n(CC(=O)N3CCc4nc(N)sc4CC3)n2)ccc1F [Example 7.02.054] to Cc1nc2c(s1)CCN(C(=O)Cn1nc(-c3ccc(F)c(C)c3)cc1C(C)C)CC2 [Example 7.02.055], the EC50 falls from 186 nM to 42 nM (4.4-fold).

First: Cc1nc2c(s1)CCN(C(=O)Cn1nc(-c3ccc(F)cn3)cc1-c1ccccc1)CC2 [Example 7.02.056]
Second: Nc1nc2c(s1)CCN(C(=O)Cn1nc(-c3ccc(F)cn3)cc1-c1ccccc1)CC2 [Example 7.02.058]
The EC50 of the first is 3.1-fold lower: 245 nM for the first, 750 nM for the second. The first is the more potent here.

Compared with Cc1nc2c(s1)CN(C(=O)Cn1nc(-c3ccc(F)cn3)cc1-c1ccccc1)C2 [Example 7.02.057], Cc1nc2c(s1)CN(C(=O)Cn1nc(-c3ccc(F)cn3)cc1-c1ccc(F)cc1)C2 [Example 7.02.059] is 3.2-fold lower in EC50: 913 nM for the first, 287 nM for the second. The second is the more potent here.

Compared with Nc1nc2c(s1)CCN(C(=O)Cn1nc(-c3ccc(F)cn3)cc1-c1ccc(F)cc1)CC2 [Example 7.02.060], Cc1nc2c(s1)CCN(C(=O)Cn1nc(-c3ccc(F)cn3)cc1-c1ccc(F)cc1)CC2 [Example 7.02.061] is 7.9-fold lower in EC50: 760 nM for the first, 96 nM for the second. The second is the more potent here.

COc1cc(-c2cc(C(C)C)n(CC(=O)N3CCc4nc(N)sc4CC3)n2)ccc1F [Example 7.02.062] and Cc1nc2c(s1)CCN(C(=O)Cn1nc(-c3ccc(F)cc3)cc1C(C)C)CC2 [Example 7.02.072] are within 1.5-fold of each other in EC50: 323 nM for the first, 251 nM for the second.

Compared with O=C(Cn1nc(-c2ccccc2)cc1-c1ccccc1)N1CCN(Cc2ccccc2)C(=O)C1 [Example 7.02.063], Cc1nc2c(s1)CCN(C(=O)Cn1nc(-c3ccc(C)c(C)c3)cc1-c1ccccc1)CC2 [Example 7.02.086] is 160-fold lower in EC50: 1730 nM for the first, 11 nM for the second.

First: CCc1cc(-c2ccc(F)c(C)c2)nn1CC(=O)N1CCc2nc(C)oc2CC1 [Example 7.02.066]
Second: CCCc1cc(-c2ccc(F)c(C)c2)nn1CC(=O)N1CCc2nc(C)sc2CC1 [Example 7.02.067]
The EC50 of the first is 4-fold higher: 24 nM for the first, 6 nM for the second. The second is the more potent here.

CCCc1cc(-c2ccc(F)c(C)c2)nn1CC(=O)N1CCC(c2cc(OC)ncn2)CC1 [Example 7.02.068] and CCCc1cc(-c2ccc(F)c(C)c2)nn1CC(=O)N1CCC(c2ncc(OC)cn2)CC1 [Example 7.02.069] are within 1.5-fold of each other in EC50: 199 nM for the first, 187 nM for the second.

First: CCCc1cc(-c2ccc(F)c(C)c2)nn1CC(=O)N1CC=C(c2cc(OC)ncn2)CC1 [Example 7.02.070]
Second: CCc1cc(-c2ccc(C)c(C)c2)nn1CC(=O)N1CC=C(c2cc(OC)ncn2)CC1 [Example 7.02.078]
The EC50 of the first is 5.8-fold lower: 40 nM for the first, 232 nM for the second.

Going from CCCc1cc(-c2ccc(F)c(C)c2)nn1CC(=O)N1CC=C(c2ncc(OC)cn2)CC1 [Example 7.02.071] to CCc1cc(-c2ccc(C)c(C)c2)nn1CC(=O)N1CC=C(c2ncc(OC)cn2)CC1 [Example 7.02.076], the EC50 rises from 71 nM to 293 nM (4.1-fold). The first is the more potent here.

Compared with CCc1cc(-c2ccc(C)c(C)c2)nn1CC(=O)N1CCc2nc(N)sc2CC1 [Example 7.02.074], CCc1cc(-c2ccc(C)c(C)c2)nn1CC(=O)N1CCc2nc(C)sc2CC1 [Example 7.02.083] is 4.9-fold lower in EC50: 171 nM for the first, 35 nM for the second. The second is the more potent here.

First: CCc1cc(-c2ccc(C)c(C)c2)nn1CC(=O)N1Cc2nc(C)sc2C1 [Example 7.02.075]
Second: CCc1cc(-c2cccc(C)c2)nn1CC(=O)N1CCc2nc(C)sc2CC1 [Example 7.02.084]
The EC50 of the first is 4.4-fold higher: 318 nM for the first, 73 nM for the second.

Going from CCc1cc(-c2ccc(C)c(C)c2)nn1CC(=O)N1CCC(c2ncc(OC)cn2)CC1 [Example 7.02.077] to CCc1cc(-c2cccc(C)c2)nn1CC(=O)N1CCC(c2ncc(OC)cn2)CC1 [Example 7.02.081], the EC50 falls from 1800 nM to 991 nM (1.8-fold). The second is the more potent here.

Going from CCc1cc(-c2cccc(C)c2)nn1CC(=O)N1CC=C(c2ncc(OC)cn2)CC1 [Example 7.02.082] to Cc1nnc(C2CCN(C(=O)Cn3nc(-c4ccc(C)c(C)c4)cc3-c3ccccc3)CC2)o1 [Example 7.02.085], the EC50 falls from 291 nM to 42 nM (6.9-fold). The second is the more potent here.
